Laboratory results taken from patent publication US20160122340A1, “HISTONE DEACETYLASE INHIBITORS BASED ON DERIVATIVES OF TRICYCLIC POLYHYDROACRIDINE AND ANALOGS POSSESSING FUSED SATURATED FIVE-AND-SEVEN-MEMBERED RINGS” (QUIMATRYX, S.L., priority 2013, published 2016).
Like-named read-outs stand apart in the source and are kept apart here.

Key:
[1] = test system: T1, Nuclear Extract from HeLa Cells; assay: HeLa nuclear extract HDAC activity inhibition; format: biochemical, human
T1 construct: 25 ng/μl Nuclear Extract from HeLa Cells: Prepared by high salt extraction of HeLa nuclei (human cervical cancer cell line)
Procedure: (§1) In Vitro Inhibitory Activity of Histone Deacetylase: Human Isoforms HDAC1, 2, 3, 4, 5, 6, 7, 8, 9, 10 and 11 and HeLa Cell Line Nuclear Extract (IC50 Data)
(§2) All HDAC assays were performed using acetylated AMC-labeled peptide substrate: • Substrate for isoforms HDAC1, 2, 3, 6, 10, 11 and HeLa nuclear extract assays: Acetylated fluorogenic peptide from p53 residues 379-382 (RHKKAc). • Substrate for isoforms HDAC 4, 5, 7, 9: Fluorogenic Boc-L-Lys(ε-trifluoroacetyl)-AMC. • Substrate for HDAC8 assays: Acetylated fluorogenic peptide from p53 residues 379-382 (RHKAcKAc).
[…] The reactions were carried out in a 96-well microplate for fluorometry in a 50 μl reaction volume. After the deacetylation reaction, Fluor-de-Lys-Developer (BioMol Cat. # KI-105) was added to each well to digest the deacetylated substrate, thus producing the fluorescent signal. The reaction was allowed to develop for 45 minutes at 30° C. with 5% CO2; then the fluorescent signal was measured with an excitation wavelength at 360 nm and an emission wavelength at 460 nm in a microplate-reading fluorometer (GeminiXS; Molecular Devices, Sunnyvale, Calif.). A curve of Deacetylated Standard (Biomol, Cat. # KI-142; made from 100 μM with 1:2 dilution and 10-doses, 6 μl) allowed the conversion of fluorescent signal into micromoles of deacetylated product. All experiments were performed in triplicate. IC50 was calculated by fitting the experimental data to a dose-response curve. DMSO was used as negative control; Trichostatin A (Biomol Cat. # GR-309) was used as positive control inhibitor.

Human HDAC1 [2] = biological target: T2, Human HDAC1 (Homo sapiens, UniProt Q13547); assay: In vitro HDAC1 inhibition, fluorogenic peptide substrate; format: biochemical; conditions: 4 h preincubation; read-out: IC50 (μM) HDAC-1
T2 construct: Full length with C-terminal GST tag, MW=79.9 kDa; GST (C); purchased BioMol SE-456; host or cells: baculovirus / Sf9 cells

Human HDAC2 = biological target: T3, Human HDAC2 (Homo sapiens, UniProt Q92769); assay: In vitro HDAC2 inhibition, fluorogenic peptide substrate; format: biochemical; conditions: read-out: IC50 (μM) HDAC-2
T3 construct: Full length with C-terminal His tag, MW=60 kDa; His (C); purchased BioMol SE-500; host or cells: baculovirus / Sf9 cells
Procedure: as §1, §2
(§3) 50 μM of substrate peptide (see ‘substrate peptides’ section above) and an optimal concentration of the corresponding enzyme (see ‘enzymes’ section above) in the assay buffer and 1% final concentration of DMSO were incubated in the presence of gradient concentrations of inhibitors (10-dose IC50 mode with 3-fold serial dilution) at 30° C. for 2 h. The reactions were carried out in a 96-well microplate for fluorometry in a 50 μl reaction volume. After the deacetylation reaction, Fluor-de-Lys-Developer (BioMol Cat. # KI-105) was added to each well to digest the deacetylated substrate, thus producing the fluorescent signal. The reaction was allowed to develop for 45 minutes at 30° C. with 5% CO2; then the fluorescent signal was measured with an excitation wavelength at 360 nm and an emission wavelength at 460 nm in a microplate-reading fluorometer (GeminiXS; Molecular Devices, Sunnyvale, Calif.). A curve of Deacetylated Standard (Biomol, Cat. # KI-142; made from 100 μM with 1:2 dilution and 10-doses, 6 μl) allowed the conversion of fluorescent signal into micromoles of deacetylated product. All experiments were performed in triplicate. IC50 was calculated by fitting the experimental data to a dose-response curve. DMSO was used as negative control; Trichostatin A (Biomol Cat. # GR-309) was used as positive control inhibitor.

Human HDAC1 [3] = biological target: T2, Human HDAC1; assay: In vitro HDAC1 inhibition, fluorogenic peptide substrate; format: biochemical; conditions: No preincubation; read-out: IC50 (μM) HDAC-1
Procedure: as §1, §2, §3

Human HDAC6 = biological target: T4, Human HDAC6 (Homo sapiens, UniProt Q9UBN7); assay: In vitro HDAC6 inhibition, fluorogenic peptide substrate; format: biochemical; conditions: No preincubation; read-out: IC50 (μM) HDAC-6
T4 construct: Full length with N-terminal GST tag, MW=159 kDa; GST (N); purchased BioMol SE-508; host or cells: baculovirus / Sf9 cells
T4 sequence (Q9UBN7 1-1215): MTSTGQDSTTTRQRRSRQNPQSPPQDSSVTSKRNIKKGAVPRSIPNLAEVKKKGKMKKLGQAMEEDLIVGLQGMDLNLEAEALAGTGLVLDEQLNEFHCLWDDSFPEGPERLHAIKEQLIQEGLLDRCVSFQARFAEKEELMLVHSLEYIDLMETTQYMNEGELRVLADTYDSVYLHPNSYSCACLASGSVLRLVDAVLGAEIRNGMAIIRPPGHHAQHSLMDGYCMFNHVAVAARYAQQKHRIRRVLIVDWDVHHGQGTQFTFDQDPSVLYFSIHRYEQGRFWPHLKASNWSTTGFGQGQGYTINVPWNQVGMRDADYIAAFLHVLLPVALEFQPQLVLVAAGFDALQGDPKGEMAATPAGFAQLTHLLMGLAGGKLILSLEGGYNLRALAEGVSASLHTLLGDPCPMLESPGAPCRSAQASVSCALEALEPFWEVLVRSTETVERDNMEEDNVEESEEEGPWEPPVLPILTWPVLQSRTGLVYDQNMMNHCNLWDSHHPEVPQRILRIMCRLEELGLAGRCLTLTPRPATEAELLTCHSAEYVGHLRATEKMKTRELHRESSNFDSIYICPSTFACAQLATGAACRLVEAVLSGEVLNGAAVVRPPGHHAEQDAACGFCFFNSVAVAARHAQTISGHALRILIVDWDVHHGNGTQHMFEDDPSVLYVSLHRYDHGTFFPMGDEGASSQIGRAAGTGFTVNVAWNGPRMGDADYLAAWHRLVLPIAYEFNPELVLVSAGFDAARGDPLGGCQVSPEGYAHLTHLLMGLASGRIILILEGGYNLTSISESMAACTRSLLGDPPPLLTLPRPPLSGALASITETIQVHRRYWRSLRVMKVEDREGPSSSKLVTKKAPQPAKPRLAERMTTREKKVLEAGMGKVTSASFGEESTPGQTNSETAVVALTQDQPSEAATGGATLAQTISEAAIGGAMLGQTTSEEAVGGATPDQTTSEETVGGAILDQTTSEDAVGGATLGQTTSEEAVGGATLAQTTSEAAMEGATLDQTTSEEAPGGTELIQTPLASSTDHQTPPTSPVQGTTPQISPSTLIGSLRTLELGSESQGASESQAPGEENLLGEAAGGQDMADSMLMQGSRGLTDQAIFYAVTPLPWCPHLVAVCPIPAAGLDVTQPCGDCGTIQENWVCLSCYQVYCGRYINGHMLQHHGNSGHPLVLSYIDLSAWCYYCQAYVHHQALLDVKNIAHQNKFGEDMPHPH
Procedure: as §1, §2, §3

T3 sequence (Q92769 whole entry): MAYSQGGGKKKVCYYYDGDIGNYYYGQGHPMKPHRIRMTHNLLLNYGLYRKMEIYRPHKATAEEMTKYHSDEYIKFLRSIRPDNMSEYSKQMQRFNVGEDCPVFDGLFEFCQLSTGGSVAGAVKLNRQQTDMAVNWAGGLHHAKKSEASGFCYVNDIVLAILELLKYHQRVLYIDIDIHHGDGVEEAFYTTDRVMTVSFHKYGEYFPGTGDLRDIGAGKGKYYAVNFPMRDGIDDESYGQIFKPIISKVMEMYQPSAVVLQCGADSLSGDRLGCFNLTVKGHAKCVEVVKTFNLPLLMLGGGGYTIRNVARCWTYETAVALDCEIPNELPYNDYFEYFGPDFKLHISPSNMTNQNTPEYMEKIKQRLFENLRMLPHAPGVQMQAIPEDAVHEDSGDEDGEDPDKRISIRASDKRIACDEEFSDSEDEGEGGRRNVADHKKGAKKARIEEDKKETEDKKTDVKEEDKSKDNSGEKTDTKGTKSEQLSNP
T2 sequence (Q13547 whole entry): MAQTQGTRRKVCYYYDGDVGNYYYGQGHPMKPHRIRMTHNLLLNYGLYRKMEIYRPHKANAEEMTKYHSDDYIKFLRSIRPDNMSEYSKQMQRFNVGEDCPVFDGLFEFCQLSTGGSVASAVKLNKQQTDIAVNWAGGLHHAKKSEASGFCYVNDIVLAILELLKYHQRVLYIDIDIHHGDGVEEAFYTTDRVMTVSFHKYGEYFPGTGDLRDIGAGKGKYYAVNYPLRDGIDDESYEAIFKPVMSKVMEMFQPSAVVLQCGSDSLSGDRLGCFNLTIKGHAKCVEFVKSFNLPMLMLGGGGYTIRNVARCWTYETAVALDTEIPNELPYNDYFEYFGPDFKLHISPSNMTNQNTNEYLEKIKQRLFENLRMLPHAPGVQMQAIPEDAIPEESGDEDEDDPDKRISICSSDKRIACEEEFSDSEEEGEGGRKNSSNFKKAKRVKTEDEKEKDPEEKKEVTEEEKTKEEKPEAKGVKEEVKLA

Row | Structure (SMILES) | IC50 ([1]; 4 h preincubation) [µM] | IC50 ([1]; No preincubation) [µM] | IC50 (Human HDAC1 [2]) [µM] | melting point [°C] | IC50 (Human HDAC2; 4 h preincubation) [µM] | IC50 (Human HDAC2; No preincubation) [µM] | IC50 (Human HDAC1 [3]) [µM] | IC50 [1] [µM] | IC50 (Human HDAC6) [µM]
1 | Nc1ncc(-c2ccccc2)cc1NC(=O)CCCCCCNc1c2c(nc3ccccc13)CCCC2 [Example 20, N-(2-amino-5-phenylpyridin-3-yl)-7-[(1,2,3,4-tetrahydroacridin-9-yl)amino]heptanamide] | 109 | > 50 | > 50 | 49 to 50 | > 50 | > 50 | 594 | – | –
2 | O=C(CCCCCCNc1c2c(nc3c(O)cccc13)CCCC2)NO [Example 6, N-hydroxy-7-[(5-hydroxy-1,2,3,4-tetrahydroacridin-9-yl)amino]heptanamide] | – | – | – | 73 | – | – | – | – | –
3 | O=C(NO)c1ccc(CNc2c3c(nc4ccccc24)CCCC3)cc1 [Example 9, N-hydroxy-4-{[(1,2,3,4-tetrahydroacridin-9-yl)amino]methyl}benzamide] | – | – | – | 204 to 205 | – | – | – | 0.9 | –
4 | Nc1ccc(-c2ccccc2)cc1NC(=O)CCCCCCNc1c2c(nc3ccccc13)CCCC2 [Example 15, N-(4-amino-[1,1′-biphenyl]-3-yl)-7-[(1,2,3,4-tetrahydroacridin-9-yl)amino]heptanamide] | 3.99 | 4.68 | 1.48 | 101 to 102 | 0.079 | 1.7 | 1.26 | – | 13.2
5 | Nc1ccc(-c2ccc3ccccc3c2)cc1NC(=O)CCCCCCNc1c2c(nc3ccccc13)CCCC2 [Example 19, N-[2-amino-5-(naphthalen-2-yl)phenyl]-7-[(1,2,3,4-tetrahydroacridin-9-yl)amino]heptanamide] | 39.3 | 17.7 | 139 | 100 to 101 | 72.7 | > 50 | > 50 | – | –
6 | Cc1ccc(N)c(NC(=O)CCCCCCNc2c3c(nc4ccccc24)CCCC3)c1 [Example 13, N-(2-amino-5-methylphenyl)-7-((1,2,3,4-tetrahydroacridin-9-yl)amino)heptanamide] | – | – | > 50 | 204 to 205 | 54.3 | 62.9 | 57.3 | – | > 50
7 | Nc1ccc(-c2cccnc2)cc1NC(=O)CCCCCCNc1c2c(nc3ccccc13)CCCC2 [Example 21, N-[2-amino-5-(pyridin-3-yl)phenyl]-7-[(1,2,3,4-tetrahydroacridin-9-yl)amino]heptanamide] | 30.7 | 78.1 | 8.55 | – | 2.79 | 3.37 | 3.97 | – | –
8 | CC(C)(C)c1ccc(N)c(NC(=O)CCCCCCNc2c3c(nc4ccccc24)CCCC3)c1 [Example 14, N-[2-amino-5-(tert-butyl)phenyl]-7-[(1,2,3,4-tetrahydroacridin-9-yl)amino]heptanamide] | > 50 | > 50 | > 50 | 75 to 76 | > 50 | > 50 | > 50 | – | –
9 | Nc1ccc(-c2ccccc2)cc1NC(=O)CCCCCNc1c2c(nc3ccccc13)CCCC2 [Example 16, N-(4-Amino-[1,1′-biphenyl]-3-yl)-6-[(1,2,3,4-tetrahydroacridin-9-yl)amino]hexanamide] | – | – | – | 75 to 76 | – | – | – | – | –
10 | Cc1ccc(NC(=O)CCCCCCNc2c3c(nc4ccccc24)CCCC3)c(N)c1 [Example 12, N-(2-amino-4-methylphenyl)-7-[(1,2,3,4-tetrahydroacridin-9-yl)amino]heptanamide] | – | – | – | 63 to 64 | – | > 50 | > 50 | – | > 50
11 | CC(C)(C)c1ccc(-c2ccc(N)c(NC(=O)CCCCCCNc3c4c(nc5ccccc35)CCCC4)c2)cc1 [Example 18, N-{4-amino-4′-(tert-butyl)-[1,1′-biphenyl]-3-yl}-7-[(1,2,3,4-tetrahydroacridin-9-yl)amino]heptanamide] | 25.5 | 429 | 48.1 | 55 to 56 | 65.9 | > 50 | 46.7 | – | –
12 | Cc1cccc(-c2ccc(N)c(NC(=O)CCCCCCNc3c4c(nc5ccccc35)CCCC4)c2)c1 [Example 17, N-(4-amino-3′-methyl-[1,1′-biphenyl]-3-yl)-7-[(1,2,3,4-tetrahydroacridin-9-yl)amino]heptanamide] | 73.6 | 84.1 | 118 | 53 to 54 | 76 | 188 | 250 | – | –
